Earlier results on 1 compound are cited in US20060018956A1, “Dermal application system for aminolevulinic acid-derivatives” (priority 2002, published 2006).

The conditions of the data set: fresh ALA solution, approximate physiological value of 8, after just two weeks.

Each structure is given as a SMILES string.

For the compound `NCC(=O)CCC(=O)O` [ALA, 5-aminolaevulinic acid], the undecomposed active substance result is on record as “approx. 10%”.
